Our source for the IC50, Inhibition tumor index and T/C values is ChEMBL document CHEMBL1140257, “Potential new antitumor agents from an innovative combination of camphorato, a ramification of traditional Chinese medicine, with a platinum moiety” (Bioorg Med Chem Lett, 2005).

The subject of one assay is HL-60. Put plainly: In vitro Inhibitory concentration against HL-60 human leukemia cell line; Tested by trypan blue exclusion test. It counts as functional, cell-based.
A short description of assay [1]: In vitro Inhibitory concentration against 3AO human ovarian carcinoma cell line; Tested by sulforhodamine B colorimetric assay. It is filed as functional.
For a further assay, the system named is Bel-7402. In words: In vitro Inhibitory concentration against BEL-7402 human hepatocarcinoma cell line; Tested by sulforhodamine B colorimetric assay. It is filed as functional, cell-based. On the technique in general: The SRB assay estimates cell density from bound dye.
A further assay deals with A549. In words: In vitro Inhibitory Concentration against A549 human lung carcinoma cell line; Tested by sulforhodamine B colorimetric assay. It is filed as functional, cell-based.
Assay [2] has as its system Homo sapiens. In words: In vivo antitumor activity against LS-174T human colon carcinoma in mice at 9 (mg/kgper dose). It counts as functional, organism-based.
Assay [3] relates to Homo sapiens. Put plainly: In vivo antitumor activity against LS-174T human colon carcinoma in mice at 6 (mg/kgper dose). It is filed as functional, organism-based.
Assay [4] relates to Homo sapiens. In words: Ratio of TRTV and CRTV at 9 (mg/kgper dose) in LS-174T human colon carcinoma implanted in mice; (TRTV=relative tumor volume of the treated group; CRTV=relative tumor volume of the control group). It counts as functional, organism-based.
Assay [5] deals with Homo sapiens. Put plainly: Ratio of TRTV and CRTV at 6 (mg/kgper dose) in LS-174T human colon carcinoma implanted in mice; (TRTV=relative tumor volume of the treated group; CRTV=relative tumor volume of the control group). It counts as functional, organism-based.

For orientation: IC50 means the concentration at which inhibition is half-maximal. As usually defined, the T/C is the ratio of treated to control.

For CARBOPLATIN, the IC50 with HL-60 worked out at 2860 nM; in assay [1], 29100 nM; in the assay on Bel-7402, 36100 nM; in the assay with A549 it was 42300 nM.

As to CISPLATIN, the IC50 in the assay with HL-60 was found to be 330 nM; in assay [1], 470 nM; in the assay with Bel-7402 it was 770 nM; in the assay with A549 it was 2230 nM.

Consider OXALIPLATIN, for which the Inhibition tumor index with Homo sapiens [2] was determined as 51%; with Homo sapiens [3], 24%. Besides, the T/C in the assay with Homo sapiens [4] came out at 50.8%; with Homo sapiens [5], 87.4%.
